Literature values, collected in patent US20080076711A1, “Therapeutic agents for osteopenia” (Chugai Seiyaku Kabushiki Kaisha, priority 2001, published 2008).

Test system: osteoporosis patients
Settings: 21 patients, once-daily subcutaneous injections for 6 to 24 months; cited from earlier work

human PTH(1-34)
calcium balance: no improvement in calcium balance
cancellous bone mass: increased cancellous bone mass
cortical bone mass: reduced cortical bone mass
